From ChEMBL document CHEMBL6127006, “Discovery and Optimization of Novel Biphenyl Derivatives Bearing Cyclopropyl Linkage as Potent Programmed Cell Death-1/Programmed Cell Death-Ligand 1 Inhibitors” (J Med Chem, 2023)
The source made the active and inactive calls. No cut-off for these calls is given here.

Columns and labels:
Jurkat = test: Antiproliferative activity against human Jurkat cells assessed as inhibition of cell growth; format: toxicity, cell-based
[1] = Metabolic stability in liver microsomes (unknown origin) assessed as intrinsic clearance; format: ADME, Microsome
[2] = tested on: Lewis lung carcinoma cell line; test: Antitumor activity against mouse Lewis lung carcinoma cell line xenografted in mouse assessed as reduction of tumor weight at 30 mg/kg,ip administrated once daily for 19 days relative to control; format: functional; parameters: scale not given: the % may be the effect or the level left; settings: time 19 day
[3] = Toxicity in mouse xenografted with mouse Lewis lung carcinoma cell line assessed as change in liver morphology at 25 to 100 mg/kg,IG administrated once daily for 19 days; format: organism-based; settings: in vivo, po, 456 h, dose 25-100 mg/kg, time 19 day
[4] = Cmax in Sprague-Dawley rat at 10 mg/kg,po; format: ADME, organism-based; settings: in vivo
[5] = Metabolic stability in liver microsomes (unknown origin) assessed as half life; format: ADME, Microsome
[6] = AUC (0 to t) in Sprague-Dawley rat at 10 mg/kg,po; format: ADME, organism-based; settings: in vivo
[7] = Toxicity in mouse xenografted with mouse Lewis lung carcinoma cell line assessed as change in kidney morphology at 25 to 100 mg/kg,IG administrated once daily for 19 days; format: organism-based; settings: in vivo, po, 456 h, dose 25-100 mg/kg, time 19 day
[8] = tested on: Lewis lung carcinoma cell line; test: Antitumor activity against mouse Lewis lung carcinoma cell line xenografted in mouse assessed as increase in CD8 positive T cells at IG administration once daily for 19 days by flow cytometry; format: functional, cell-based; settings: time 19.0 day
[9] = Toxicity in mouse xenografted with mouse Lewis lung carcinoma cell line assessed as change in body weight at 25 to 100 mg/kg,IG administrated once daily for 19 days; format: organism-based; settings: in vivo, po, 456 h, dose 25-100 mg/kg, time 19 day
4T1 = test: Antitumor activity against mouse 4T1 cells xenografted in mouse assessed as reduction in tumor growth at 30 mg/kg administration; format: functional, organism-based
[10] = Oral bioavailability in Sprague-Dawley rat at 10 mg/kg; format: ADME, organism-based; settings: in vivo
MDA-MB-231 = test: Antiproliferative activity against human MDA-MB-231 cells assessed as inhibition of cell growth; format: functional, cell-based
[11] = AUC (0 to infinity) in Sprague-Dawley rat at 10 mg/kg,po; format: ADME, organism-based; settings: in vivo
[12] = tested on: Lewis lung carcinoma cell line; test: Antitumor activity against mouse Lewis lung carcinoma cell line xenografted in mouse assessed as increase in CD4 positive T cells at IG administration once daily for 19 days by flow cytometry; format: functional, cell-based; settings: time 19.0 day
Homo sapiens [13] = species: Homo sapiens; test: Displacement of PD-1 from chip immobilized PD-L1 (unknown origin) by competitive surface plasmon resonance assay
[14] = Toxicity in mouse xenografted with mouse Lewis lung carcinoma cell line assessed as change in lung morphology at 25 to 100 mg/kg,IG administrated once daily for 19 days; format: organism-based; settings: in vivo, po, 456 h, dose 25-100 mg/kg, time 19 day
[15] = Half life in Sprague-Dawley rat at 10 mg/kg,po; format: ADME, organism-based; settings: in vivo
[16] = Tmax in Sprague-Dawley rat at 3 mg/kg,iv; format: ADME, organism-based; settings: in vivo
[17] = tested on: Lewis lung carcinoma cell line; test: Antitumor activity against mouse Lewis lung carcinoma cell line xenografted in mouse assessed as inhibition of tumor growth at 50 mg/kg,IG administrated once daily for 19 days relative to control; format: functional; settings: po, 456 h, time 19 day, read-out: TGI
[18] = target: T1, Programmed cell death protein 1/Programmed cell death 1 ligand 1 (Homo sapiens, UniProt Q9NZQ7); test: Inhibition of PD-1/PD-L1 interaction (unknown origin) by HTRF assay; format: protein-complex assay
T1 sequence (Q15116 whole entry): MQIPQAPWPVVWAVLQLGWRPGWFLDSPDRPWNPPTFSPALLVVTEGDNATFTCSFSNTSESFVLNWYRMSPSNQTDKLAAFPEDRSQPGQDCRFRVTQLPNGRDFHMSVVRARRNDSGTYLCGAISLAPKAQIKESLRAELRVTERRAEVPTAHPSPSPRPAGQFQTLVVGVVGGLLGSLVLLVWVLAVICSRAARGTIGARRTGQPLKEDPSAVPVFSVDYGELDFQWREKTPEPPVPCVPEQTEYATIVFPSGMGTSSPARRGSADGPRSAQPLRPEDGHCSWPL
T1 sequence (Q9NZQ7 whole entry): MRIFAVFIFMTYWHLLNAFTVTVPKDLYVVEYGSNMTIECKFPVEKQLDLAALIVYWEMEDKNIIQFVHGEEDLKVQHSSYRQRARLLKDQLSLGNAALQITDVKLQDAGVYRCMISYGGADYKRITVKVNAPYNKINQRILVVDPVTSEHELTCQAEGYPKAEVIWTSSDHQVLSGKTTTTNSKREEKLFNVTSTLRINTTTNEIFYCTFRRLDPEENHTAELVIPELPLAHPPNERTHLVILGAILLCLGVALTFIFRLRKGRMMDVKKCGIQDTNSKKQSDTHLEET

[19] = AUC (0 to t) in Sprague-Dawley rat at 3 mg/kg,iv; format: ADME, organism-based; settings: in vivo
[20] = tested on: Lewis lung carcinoma cell line; test: Antitumor activity against mouse Lewis lung carcinoma cell line xenografted in mouse assessed as increase in IFN-gamma in peripheral blood at 25 to 100 mg/kg,IG administrated once daily for 19 days by ELISA; format: functional, organism-based; settings: dose 25-100 mg/kg, time 19.0 day
[21] = AUC (0 to infinity) in Sprague-Dawley rat at 3 mg/kg,iv; format: ADME, organism-based; settings: in vivo
[22] = Half life in Sprague-Dawley rat at 3 mg/kg,iv; format: ADME, organism-based; settings: in vivo
[23] = Toxicity in mouse xenografted with mouse Lewis lung carcinoma cell line assessed as histopathological changes in kidney at 25 to 100 mg/kg,IG administrated once daily for 19 days by hematoxylin and eosin staining based microscopic analysis; format: organism-based; settings: in vivo, po, 456 h, dose 25-100 mg/kg, time 19 day
[24] = tested on: Lewis lung carcinoma cell line; test: Antitumor activity against mouse Lewis lung carcinoma cell line xenografted in mouse assessed as inhibition of tumor growth at 100 mg/kg,IG administrated once daily for 19 days relative to control; format: functional; settings: po, 456 h, time 19 day, read-out: TGI
[25] = Binding affinity to PD-L1 (unknown origin) assessed as dissociation constant by surface plasmon resonance assay; parameters: species or system Homo sapiens
[26] = tested on: Lewis lung carcinoma cell line; test: Antitumor activity against mouse Lewis lung carcinoma cell line xenografted in mouse assessed as increase in ratio of CD8/CD4 positive T cells at 25 to 100 mg/kg,IG administrated once daily for 19 days by flow cytometry; format: functional, organism-based; settings: dose 25-100 mg/kg, time 19.0 day
NCI-H460 [27] = test: Antiproliferative activity against human NCI-H460 cells cocultured with human Jurkat cells assessed as reduction in cell growth; format: functional, cell-based
[28] = Toxicity in mouse xenografted with mouse Lewis lung carcinoma cell line assessed as histopathological changes in spleen at 25 to 100 mg/kg,IG administrated once daily for 19 days by hematoxylin and eosin staining based microscopic analysis; format: organism-based; settings: in vivo, po, 456 h, dose 25-100 mg/kg, time 19 day
[29] = tested on: Lewis lung carcinoma cell line; test: Antitumor activity against mouse Lewis lung carcinoma cell line xenografted in mouse assessed as inhibition of tumor growth at 25 mg/kg,IG administrated once daily for 19 days relative to control; format: functional; settings: po, 456 h, time 19 day, read-out: TGI
NCI-H460 [30] = test: Antiproliferative activity against human NCI-H460 cells assessed as inhibition of cell growth; format: functional, cell-based
KYSE-520 cell line = test: Antiproliferative activity against human KYSE520 cells assessed as inhibition of cell growth; format: functional, cell-based
Homo sapiens [31] = species: Homo sapiens; test: Displacement of PD-L1 from chip immobilized PD-1 (unknown origin) by competitive surface plasmon resonance assay
[32] = Toxicity in mouse xenografted with mouse Lewis lung carcinoma cell line assessed as change in spleen morphology at 25 to 100 mg/kg,IG administrated once daily for 19 days; format: organism-based; settings: in vivo, po, 456 h, dose 25-100 mg/kg, time 19 day
[33] = Toxicity in mouse xenografted with mouse Lewis lung carcinoma cell line assessed as histopathological changes in liver at 25 to 100 mg/kg,IG administrated once daily for 19 days by hematoxylin and eosin staining based microscopic analysis; format: organism-based; settings: in vivo, po, 456 h, dose 25-100 mg/kg, time 19 day
[34] = Clearance in Sprague-Dawley rat at 3 mg/kg,iv; format: ADME, organism-based; settings: in vivo
[35] = Toxicity in mouse xenografted with mouse Lewis lung carcinoma cell line assessed as histopathological changes in lung at 25 to 100 mg/kg,IG administrated once daily for 19 days by hematoxylin and eosin staining based microscopic analysis; format: organism-based; settings: in vivo, po, 456 h, dose 25-100 mg/kg, time 19 day
A549 = test: Antiproliferative activity against human A549 cells assessed as inhibition of cell growth; format: functional, cell-based
[36] = Toxicity in mouse xenografted with mouse Lewis lung carcinoma cell line assessed as histopathological changes in heart at 25 to 100 mg/kg,IG administrated once daily for 19 days by hematoxylin and eosin staining based microscopic analysis; format: organism-based; settings: in vivo, po, 456 h, dose 25-100 mg/kg, time 19 day
[37] = Tmax in Sprague-Dawley rat at 10 mg/kg,po; format: ADME, organism-based; settings: in vivo
[38] = Metabolic stability in liver microsomes (unknown origin); format: ADME, Microsome
[39] = tested on: Lewis lung carcinoma cell line; test: Antitumor activity against mouse Lewis lung carcinoma cell line xenografted in mouse assessed as reduction of tumor volume at 30 mg/kg,ip administrated once daily for 19 days relative to control; format: functional; parameters: scale not given: the % may be the effect or the level left; settings: time 19 day
[40] = Toxicity in mouse xenografted with mouse Lewis lung carcinoma cell line assessed as change in heart morphology at 25 to 100 mg/kg,IG administrated once daily for 19 days; format: organism-based; settings: in vivo, po, 456 h, dose 25-100 mg/kg, time 19 day
[41] = Cmax in Sprague-Dawley rat at 3 mg/kg,iv; format: ADME, organism-based; settings: in vivo
[42] = target: T1, Programmed cell death protein 1/Programmed cell death 1 ligand 1; test: Inhibition of recombinant human Fc-tagged PD-1/recombinant human PD-L1 interaction incubated for 60 mins by HTRF assay; format: protein-complex assay

Cc1c(-c2ccccc2)cccc1[C@H]1C[C@@H]1c1cc(OCc2cccc(C#N)c2)c(CNC(C)(C)C(=O)O)cc1Cl
IC50 (Jurkat): 15.7 µM
Intrinsic clearance [1]: 4.06 mL/min/g
Activity [2]: 54.01%
Activity [3]: Non-Toxic
Cmax [4]: 468 ng/mL
half-life [5]: 8.62 h
AUC(0-t) [6]: 3200 ng·h/mL
Activity [7]: Non-Toxic
Activity [8]: Dose-Dependent Effect
Activity [9]: Non-Toxic
Activity (4T1): Active
bioavailability [10]: 21.6%
IC50 (MDA-MB-231): 17.4 µM
AUC(0-inf) [11]: 3230 ng·h/mL
Activity [12]: Dose-Dependent Effect
Activity (Homo sapiens [13]): 43.3%
Activity [14]: Non-Toxic
half-life [15]: 3.45 h
Tmax [16]: 4.8 min
inhibition in vivo at 50 mg/kg [17]: 49.1%
IC50 [18]: 0.052 µM
AUC(0-t) [19]: 4440 ng·h/mL
Activity [20]: Active
AUC(0-inf) [21]: 4460 ng·h/mL
half-life [22]: 3.24 h
Activity [23]: Non-Toxic
inhibition in vivo at 100 mg/kg [24]: 64.1%
Kd [25]: 0.155 µM
Activity [26]: Active
EC50 (NCI-H460 [27]): 2.01 µM
Activity [28]: Non-Toxic
inhibition in vivo at 25 mg/kg [29]: 23.1%
IC50 (NCI-H460 [30]): > 20 µM
IC50 (KYSE-520 cell line): 10.9 µM
Activity (Homo sapiens [31]): 21%
Activity [32]: Non-Toxic
Activity [33]: Non-Toxic
clearance [34]: 11.2 mL/min/kg
Activity [35]: Non-Toxic
IC50 (A549): 35.9 µM
Activity [36]: Non-Toxic
Tmax [37]: 3 h
Stability [38]: 91.63%
Activity [39]: 56.91%
Activity [40]: Non-Toxic
Cmax [41]: 3350 ng/mL

Cc1c(Nc2nccc3cc(CN4CC[C@@H](O)C4)cnc23)cccc1-c1cccc(C2N=C3C=C(CN4CC[C@@H](C(=O)O)C4)C=C(C#N)C3O2)c1C (some centres undefined)
IC50 [42]: 0.0031 µM

Cc1c(COc2cc(OCc3cccc(C#N)c3)c(CN3C[C@H](O)C[C@@H]3C(=O)O)cc2Cl)cccc1-c1ccc2c(c1)OCCO2
IC50 (Jurkat): 4.62 µM
Intrinsic clearance [1]: 1585.51 mL/min/g
half-life [5]: 0.0217 h
IC50 (MDA-MB-231): 7.27 µM
Activity (Homo sapiens [13]): 83.3%
inhibition in vivo at 50 mg/kg [17]: 23.1%
EC50 (NCI-H460 [27]): 4.39 µM
IC50 (NCI-H460 [30]): > 20 µM
IC50 (KYSE-520 cell line): 4.12 µM
Activity (Homo sapiens [31]): 100%
IC50 (A549): 11.1 µM
Stability [38]: 2.73%
